The numbers were not newly measured in patent US20080317729A1, “Ammonium Salts and Ammonium Salt/Mineral Salt Clathrate Compounds for Use as Vehicle and Effective Form for Pharmaco-Medical Applications and for Use as Phase Transfer Agents for Chemical Applications” (priority 2004, published 2008), which cites them from elsewhere.

SMILES strings stand for the structures.

Regarding `CCN(CC)CCOC(=O)c1ccc(N)cc1` [diprocainium carbonate], the solubility entry is on record as “moderately dissoluble”.
